{
  "source": "paper PMC10286459",
  "about": "(Cell & Bioscience, 2023)",
  "key": {"FOXM1/DNA complex": {"target": "FOXM1/DNA complex (Homo sapiens, UniProt Q08050)", "sequence (Q08050 1-748 isoform Q08050-2, one chain of several)": "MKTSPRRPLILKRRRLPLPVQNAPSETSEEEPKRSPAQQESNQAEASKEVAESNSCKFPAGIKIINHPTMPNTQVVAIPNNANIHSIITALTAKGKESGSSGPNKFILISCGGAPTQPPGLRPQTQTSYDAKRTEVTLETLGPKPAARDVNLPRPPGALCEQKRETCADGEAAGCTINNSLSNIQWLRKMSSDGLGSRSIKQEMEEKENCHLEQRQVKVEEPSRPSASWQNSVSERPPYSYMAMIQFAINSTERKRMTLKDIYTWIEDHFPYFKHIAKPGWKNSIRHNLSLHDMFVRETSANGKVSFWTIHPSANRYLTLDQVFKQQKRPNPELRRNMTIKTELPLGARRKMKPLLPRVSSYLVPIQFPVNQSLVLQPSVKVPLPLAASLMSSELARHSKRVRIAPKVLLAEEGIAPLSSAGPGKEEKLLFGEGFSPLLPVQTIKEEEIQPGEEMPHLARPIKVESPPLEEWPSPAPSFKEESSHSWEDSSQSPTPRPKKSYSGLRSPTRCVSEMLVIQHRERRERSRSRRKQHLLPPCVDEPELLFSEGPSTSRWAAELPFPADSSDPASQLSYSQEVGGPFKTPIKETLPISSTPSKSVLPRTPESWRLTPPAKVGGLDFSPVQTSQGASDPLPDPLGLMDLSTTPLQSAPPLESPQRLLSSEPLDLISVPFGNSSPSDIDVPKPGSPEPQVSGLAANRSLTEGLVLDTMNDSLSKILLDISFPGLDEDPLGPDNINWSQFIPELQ", "experiment": "Electrophoretic Mobility Shift Assays (EMSAs)", "type": "biochemical", "details": "recombinant FOXM1 2 µM, FAM-labeled DNA probe 50 nM, M1-21 0.5, 1, 2 µM", "protocol": "A FAM-labeled DNA probe (50 nM) was mixed with recombinant FOXM1 protein (2 µM) for EMSAs. […] The specificity of FOXM1/DNA complex formation was shown using 100× unlabeled DNA probes (cold probes, 5000 nM). Reactions were resolved in 4% native polyacrylamide gel electrophoresis in 0.5×TBE and visualized with a Kodak 4000 MM Imaging System (EX: 465 nm, EM: 535 nm). B The docking of P22 to FOXM1 DNA Binding domain (DBD, PDB ID 3G73) was created by Rosetta FlexPepDock and PyMOL. Left, the interface of peptide-protein interaction, peptide was shown in cyan and FOXM1 DBD was shown according to its electrostatic potential. Right, hydrogen bonds were formed by residues (blue from peptide and black from FOXM1 DBD) at the interface of peptide and protein interaction.\nThe double-strand DNA (dsDNA) probe was synthesized by Sangon Co., Ltd. (Shanghai, China). Protein (2 µM) was incubated with FAM-labeled dsDNA probe (50 nM) in binding buffer (20 mM Tris-Cl, 50 mM KCl, 0.5 mM EDTA, 0.2 mM DTT, 10% glycerol, pH 7.6) for 30 min on ice. […] The reactions were resolved in 4% native polyacrylamide gel electrophoresis in 0.5×TBE and visualized with Kodak 4000 MM Imaging System (Kodak, USA) (EX: 465 nm, EM: 535 nm for FAM). Sequence information is available in Supplementary Table S3."}, "[1]": {"experiment": "In vivo imaging of distribution of ICG-labeled peptide", "set-up": "species or system mouse", "details": "ICG-labeled M1-21, 30 mg/kg tail vein, wild-type ICR/JCL mice; IVIS imaging 0.5-24 h"}, "MDA-MB-231 cells [2]": {"system": "MDA-MB-231 cells", "details": "Biotin-M1-21 20 µM, 4 h, cytosol and nuclear protein samples, Western blotting"}, "MDA-MB-231 cells [3]": {"system": "MDA-MB-231 cells", "experiment": "Wound Healing assay", "details": "MDA-MB-231, 10 µM for 36 h; versus M1-21mut; n = 3"}, "[4]": {"target": "FOXM1:LIN9 or FOXM1: B-MYB (Homo sapiens, UniProt Q08050)", "sequence (Q08050 1-748 isoform Q08050-2)": "as the sequence (Q08050 1-748 isoform Q08050-2, one chain of several) above", "experiment": "Co-IP in 231-Flag-FOXM1-Ind cells", "details": "10, 20 µM for 6 h, dose-dependent", "method": "Cell lysates (500 µg) were extracted and incubated with anti-Flag magnetic beads to pull down Flag-FOXM1/proteins complexes. […] 5% of cell lysates (25 µg) were used as input controls.\nFor Co-IP, IP lysate buffer was used to extract total protein. 500 µg protein lysates were incubated with 20 µl of Anti-Flag Magnetic Beads (Bimake, USA) for Flag-FOXM1 proteins at 4 °C for 3 h. The beads were washed 5 times with pre-cooled 1×PBS and subjected to Western blotting."}, "4T1-Luc-GFP cells": {"system": "4T1-Luc-GFP cells", "experiment": "4T1-Luc-GFP metastasis tracing in wild-type BALB/c mice", "details": "15 or 30 mg/kg intraperitoneal every two days", "method": "D Wild-type BALB/c mice were tail-vein injected with 4T1-Luc-GFP cells (1 × 10^6 cells/mouse). […] E Different organs of representative mice were harvested on Day 21 and fluorescent imaging was performed as described above. F The D panel mouse survival statistic curves were obtained by the Mantel-Cox estimator with log rank test\nWild-type BALB/c mice were injected with 4T1-Luc-GFP cells (1 × 10^6 cells/mouse) via the tail vein. […] Different organs of representative mice were harvested on Day 21 for luminaire imaging. When the mice lost mobility and had difficulty eating, the mice were considered near death and terminated according to animal welfare. The survival statistic curve was obtained by the Mantel-Cox estimator with the log rank test."}, "MDA-MB-231 cells [5]": {"system": "MDA-MB-231 cells", "experiment": "mRNA and protein levels of marker and target genes (qPCR, Western blotting)", "method": "The levels of mRNA or protein of E-cadherin (E-cad), Vimentin (VIM), and N-cadherin (N-cad) were measured by qPCR or Western blotting, respectively. GAPDH or β-actin was used as a loading control for mRNA or protein. mRNA values represented the mean ± SD of three replicates, and significance was calculated using unpaired t test. *P < 0.05; **P < 0.01; ***P < 0.001\nThe mRNA levels of PLK1, CDC25B, and Vimentin (VIM) were measured by qPCR. GAPDH was used as a loading control. […] The protein levels of PLK1, CDC25B, and Vimentin (VIM) were measured by Western blotting. β-actin was used as a loading control.\nFOXM1 mRNA was detected by qPCR. GAPDH was used as a loading control."}, "[6]": {"details": "MDA-MB-231, 10 µM, 24 h, qPCR, Western blotting"}},
  "note": "Non-standard residues stand in square brackets, D forms with d. Residues, ends and D or L forms follow the SMILES beside them.",
  "data": [
    {"smiles": "CC[C@@H](C)[C@@H](NC(=O)[C@@H](CC(C)C)NC(=O)[C@H](NC(=O)[C@@H](CO)NC(=O)[C@@H](CS)NC(=O)CNC(=O)CNC(=O)[C@@H](C)NC(=O)[C@H]1CCCN1C(=O)[C@H](NC(=O)[C@@H](CCC(N)=O)NC(=O)[C@H]1CCCN1C(=O)[C@H]1CCCN1C(=O)CNC(=O)[C@@H](CC(C)C)NC(=O)[C@@H](CCCNC(=N)N)NC(=O)[C@H]1CCCN1C(=O)[C@@H](CCC(N)=O)NC(=O)[C@H](NC(=O)[C@H](N)CCC(N)=O)[C@H](C)O)[C@H](C)O)[C@H](C)CC)C(=O)N[C@H](Cc1ccccc1)C(=O)N[C@H](CCCNC(=N)N)C(=O)N[C@H](CCCNC(=N)N)C(=O)N[C@H](CCCNC(=N)N)C(=O)N[C@H](CCC(N)=O)C(=O)N[C@H](CCCNC(=N)N)C(=O)N[C@H](CCCNC(=N)N)C(=O)N[C@H](CCCCN)C(=O)N[C@H](CCCCN)C(=O)N[C@H](CCCNC(=N)N)C(=O)NCC(=O)O", "note": "[M1-21] (H-[dQ][dT][dQ][dP][dR][dL]G[dP][dP][dQ][dT][dP][dA]GG[dC][dS][dI][dL][dI][dF][dR][dR][dR][dQ][dR][dR][dK][dK][dR]G-OH; N-terminus and C-terminus assumed)", "values": [
      {"measurement": "DNA binding ability of FOXM1 (EMSA)", "setting": "FOXM1/DNA complex", "result": "did not disturb"},
      {"measurement": "period of stay in the body (stability in mice)", "setting": "[1]", "result": "> 15", "unit": "h"},
      {"measurement": "distribution after entering cells", "setting": "MDA-MB-231 cells [2]", "result": "distributed in cytoplasm and nucleus"},
      {"measurement": "cell migration", "setting": "MDA-MB-231 cells [3]", "result": "inhibited"},
      {"measurement": "interaction of FOXM1:LIN9 or FOXM1: B-MYB (Co-IP)", "setting": "[4]", "result": "disrupted the interaction"},
      {"measurement": "survival time of the animals", "setting": "4T1-Luc-GFP cells; Mantel-Cox, log rank test", "result": "significantly prolonged"},
      {"measurement": "metastasis of 4T1-Luc-GFP cells (in vivo luciferase imaging)", "setting": "4T1-Luc-GFP cells; n = 6 per group, Day 1, 7, 17, organs Day 21", "result": "prevented metastasis"},
      {"measurement": "levels of epithelial marker E-cadherin", "setting": "MDA-MB-231 cells [5]; [6]", "result": "increased"},
      {"measurement": "levels of mesenchymal markers Vimentin and N-cadherin", "setting": "MDA-MB-231 cells [5]; [6]", "result": "decreased"},
      {"measurement": "mRNA and protein levels of PCNA and Cyclin B1", "setting": "MDA-MB-231 cells [5]; MDA-MB-231, 20 µM for 24 h, versus M1-21mut", "result": "downregulated"},
      {"measurement": "levels (mRNA or protein) of FOXM1 itself", "setting": "MDA-MB-231 cells [5]; MDA-MB-231, 20 µM, and spontaneously developed cancer tissues, Fig. S21", "result": "decrease the levels"},
      {"measurement": "mRNA and protein levels of CDC25B, PLK1 and Vimentin", "setting": "MDA-MB-231 cells [5]; MDA-MB-231, 20 µM, qPCR 24 h, Western blotting 1.5-36 h", "result": "dramatically repressed the expression"}
    ]}
  ]
}
